pIC50: −log10 of the molar value.
Legend:
[1] = target: T1, Human immunodeficiency virus type 1 protease (Human immunodeficiency virus 1, UniProt Q72874); experiment: Inhibitory concentration against HIV-1 protease (NL4-3)
MT4 [2] = experiment: Concentration required to inhibit spread of native HIV-1(V18) protease obtained from PI-resistant clinical isolate in MT-4 human T-lymphoid cells; assay type: functional; settings: read-out: CIC95
MT4 [3] = experiment: Concentration required to inhibit spread of native HIV-1(4X) protease obtained from PI-resistant clinical isolate in MT-4 human T-lymphoid cells; assay type: functional; settings: read-out: CIC95
MT4 [4] = experiment: Concentration required to inhibit spread of native HIV-1(K-60) protease obtained from PI-resistant clinical isolate in MT-4 human T-lymphoid cells; assay type: functional; settings: read-out: CIC95
MT4 [5] = experiment: Concentration required to inhibit spread of native HIV-1(Q-60) protease obtained from PI-resistant clinical isolate in MT-4 human T-lymphoid cells; assay type: functional; settings: read-out: CIC95
MT4 [6] = experiment: Concentration required to inhibit spread of native HIV-1(NL4-3) protease obtained from PI-resistant clinical isolate in MT-4 human T-lymphoid cells; assay type: functional; settings: read-out: CIC95
[7] = target: T1, Human immunodeficiency virus type 1 protease; experiment: inhibitory concentration against HIV-1 protease from PI-resistant clinical isolate (V18)

Compound | pIC50 [1] | IC95 (MT4 [2]) | IC95 (MT4 [3]) | IC95 (MT4 [4]) | IC95 (MT4 [5]) | IC95 (MT4 [6]) | pIC50 [7]
Cc1nnc(C[C@H](C[C@H](O)CN2CCN(Cc3ccc(-c4ccc(Cl)cc4)o3)C[C@H]2C(=O)NCC(F)(F)F)C(=O)N[C@H]2CCOC[C@H]2O)o1 | > 11.00 | 63 nM | 31 nM | 31 nM | 31 nM | ≤ 63 nM | 
O=C(N[C@H]1CCOC[C@H]1O)[C@H](Cc1nnco1)C[C@H](O)CN1CCN(Cc2ccc(-c3ccc(Cl)cc3)o2)C[C@H]1C(=O)NCC(F)(F)F | 11.00 | 125 nM | 31 nM | 63 nM | 31 nM | 63 nM | 10.05
CC(C)(c1ncc(-c2ccc(Cl)cc2)o1)N1CCN(C[C@@H](O)C[C@@H](Cc2nnco2)C(=O)N[C@H]2CCOC[C@H]2O)[C@H](C(=O)NCC(F)(F)F)C1 | > 11.00 | 63 nM | 31 nM | 63 nM | 31 nM | 125 nM | 10.40
CCCc1nnc(C[C@H](C[C@H](O)CN2CCN(C(C)(C)c3ncc(-c4ccc(F)cc4)o3)C[C@H]2C(=O)NCC(F)(F)F)C(=O)N[C@H]2CCOC[C@H]2O)o1 | 11.00 | 63 nM | 16 nM | 16 nM | ≤ 8 nM | 16 nM | 9.72
CCCc1nnc(C[C@H](C[C@H](O)CN2CCN(C(C)(C)c3ncc(-c4cncc(OC)c4)o3)C[C@H]2C(=O)NCC(F)(F)F)C(=O)N[C@H]2CCOC[C@H]2O)o1 | 9.49 | < 1000 nM | 500 nM | 500 nM | 500 nM | 500 nM | 
CC(C)(c1ncc(-c2ccc(Cl)cc2)o1)N1CCN(C[C@@H](O)C[C@@H](Cc2nnc(-c3ccccc3)o2)C(=O)N[C@H]2CCOC[C@H]2O)[C@H](C(=O)NCC(F)(F)F)C1 | > 11.00 | 125 nM | 16 nM | ≤ 8 nM | 16 nM | ≤ 8 nM | 9.74
CCCc1nnc(C[C@H](C[C@H](O)CN2CCN(Cc3ccc(-c4ccc(Cl)cc4)o3)C[C@H]2C(=O)NCC(F)(F)F)C(=O)N[C@H]2CCOC[C@H]2O)o1 | > 11.00 | 125 nM | 31 nM | ≤ 8 nM | 16 nM | ≤ 8 nM | 
COc1cncc(-c2cnc(C(C)(C)N3CCN(C[C@@H](O)C[C@@H](Cc4nnco4)C(=O)N[C@H]4CCOC[C@H]4O)[C@H](C(=O)NCC(F)(F)F)C3)o2)c1 | 9.62 |  |  |  |  |  | 8.13
COc1cncc(-c2cnc(C(C)(C)N3CCN(C[C@@H](O)C[C@@H](Cc4nnc(-c5ccccc5)o4)C(=O)N[C@H]4CCOC[C@H]4O)[C@H](C(=O)NCC(F)(F)F)C3)o2)c1 | 9.32 | < 1000 nM | 250 nM | 250 nM | 500 nM | 125 nM | 
Cc1nnc(C[C@H](C[C@H](O)CN2CCN(C(C)(C)c3ncc(-c4ccc(F)cc4)o3)C[C@H]2C(=O)NCC(F)(F)F)C(=O)N[C@H]2CCOC[C@H]2O)o1 | 10.70 | 63 nM | 31 nM | 125 nM | 31 nM | 125 nM | 9.72
COc1cncc(-c2cnc(C(C)(C)N3CCN(C[C@@H](O)C[C@@H](Cc4nnc(C)o4)C(=O)N[C@H]4CCOC[C@H]4O)[C@H](C(=O)NCC(F)(F)F)C3)o2)c1 | 9.40 | > 1000 nM | > 1000 nM | > 1000 nM | > 1000 nM | > 1000 nM | 7.82
CC(C)(C)NC(=O)[C@@H]1CN(Cc2cccnc2)CCN1C[C@@H](O)C[C@@H](Cc1ccccc1)C(=O)N[C@H]1c2ccccc2C[C@H]1O |  | > 1000 nM | 400 nM | > 1000 nM | > 1000 nM | 50 nM | 
CC(C)(c1ncc(-c2ccc(F)cc2)o1)N1CCN(C[C@@H](O)C[C@@H](Cc2nnco2)C(=O)N[C@H]2CCOC[C@H]2O)[C@H](C(=O)NCC(F)(F)F)C1 | 10.70 | 125 nM | 31 nM | 125 nM | 31 nM | 125 nM | 10.22
Cc1nnc(C[C@H](C[C@H](O)CN2CCN(C(C)(C)c3ncc(-c4ccc(Cl)cc4)o3)C[C@H]2C(=O)NCC(F)(F)F)C(=O)N[C@H]2CCOC[C@H]2O)o1 | 11.00 | 63 nM | 16 nM | 31 nM | ≤ 8 nM | 250 nM | 10.22
O=C(N[C@H]1CCOC[C@H]1O)[C@H](Cc1nnc(-c2ccccc2)o1)C[C@H](O)CN1CCN(Cc2ccc(-c3ccc(Cl)cc3)o2)C[C@H]1C(=O)NCC(F)(F)F | 11.00 | 250 nM | 125 nM | ≤ 8 nM | 63 nM | 15.6 nM | 
CC(C)(c1ncc(-c2ccc(F)cc2)o1)N1CCN(C[C@@H](O)C[C@@H](Cc2nnc(-c3ccccc3)o2)C(=O)N[C@H]2CCOC[C@H]2O)[C@H](C(=O)NCC(F)(F)F)C1 | 10.70 | 63 nM | 16 nM | ≤ 8 nM | 16 nM | ≤ 8 nM | 
CCCc1nnc(C[C@H](C[C@H](O)CN2CCN(C(C)(C)c3ncc(-c4ccc(Cl)cc4)o3)C[C@H]2C(=O)NCC(F)(F)F)C(=O)N[C@H]2CCOC[C@H]2O)o1 | > 11.00 | 63 nM | ≤ 8 nM | 16 nM | ≤ 8 nM | ≤ 8 nM | 9.74

From ChEMBL document CHEMBL1137832, “P1' oxadiazole protease inhibitors with excellent activity against native and protease inhibitor-resistant HIV-1” (Bioorg Med Chem Lett, 2004)
